Data reported in US20130274196A1, “METHOD FOR TREATMENT OF INFLAMMATORY DISEASE AND DISORDER” (HEALOR LTD., priority 2010, published 2013).
Values joined by “and” are separate entries in the source; they are usually repeats but may differ in a detail not shown here. Identical values can stand only once. “Also recorded” adds a separate entry of the source. The star is where a group is joined. Palmitoyl = CCCCCCCCCCCCCCCC(=O)*; Myristoyl = CCCCCCCCCCCCCC(=O)*

Experiments:
EAE mice = assay: Experimental allergic encephalomyelitis (EAE), MOG35-55/CFA immunized mice; assay type: in vivo, C57BL/6J mice; conditions: for Score on day 18 / Score on day 29 / Score on day 37: EAE scale 0-6; for EAE score on the initial day: scale 0-6; for Number of dead mice during 49 days: n=7
keratinocytes = assay: Cytokine secretion in LPS, TNFα or IL-17 activated keratinocytes treated with peptide PKCα inhibitors (ELISA); assay type: cell-based, BALB/C mice; conditions: for cytokine secretion in keratinocytes: stimulated by LPS, TNFα, or IL-17, medium collected after 48 hr
Description: To determine their effects, keratinocytes were derived from newborn BALB/C mice skin. The cells were incubated for 5 days in 24 wells plate. Cells were then incubated with PBS −/− as control or stimulated by LPS, TNFα, or IL-17. PKCα inhibitors were added as indicated. Medium containing secreted cytokines was collected after 48 hr and analyzed using ELISA. FIG. 50 is a tabular summary of cytokine secretion.

C57BL mice [1] = assay: Incision wounds treated 7 days, histological analysis (Example 9); assay type: in vivo
Description: Wounds were performed on the back of 8-10 week old C57BL mice by incision and were treated daily for 7 days with either vehicle (PBS) control or with 1 μM insulin (Humulin, Eli Lilly, USA) or a mixture of 1 μM insulin combined with 1 μM of the PKCα inhibitor of SEQ ID NO: 6. Seven days after wounding all mice were sacrificed and treated wounds were histologically analyzed for proliferative capacity of the epidermis (proliferating cell nuclear antigen-PCNA), angiogenesis, inflammation, epidermal cells and the remodeling processes at the wound gap.

[2] = test system: STZ-induced diabetic C57BL/6J mice; assay: Wound healing in STZ-induced diabetic mice; assay type: in vivo
Description: Full thickness skin incisions (20 mm) were performed on the upper back of anesthetized streptozocin (STZ)-injected (175 mg/kg body weight) diabetic, citrate buffer injected (6 mice/group) non-diabetic, and non-injected (6 mice/group), C57BL/6J mice. Periodical blood glucose monitoring was performed by measuring glucose levels from tail vein after STZ injection. […] Following incision, STZ-induced diabetic wounds were treated daily by application of PBS (7/6 mice/group), insulin (0.1 units/ml) (6 mice/group), the PKCa inhibitor of SEQ ID NO:6 (1 μg/ml) (7/5 mice/group) or a formulation (herein designated HO/03/03) containing insulin and the N-myristoylated PKCα inhibitor of SEQ ID NO: 6 (7/6 mice/group) directly to the surgical dressing. Biopsies were collected 9 days post-wounding. Wounds were excised from euthanized animals for evaluation of wound-healing parameters by histology and immunohistochemistry.
Wounds were assessed for epidermal closure by Keratin 14 staining. Wounds were considered closed when complete epidermal staining was observed across the wound gap. Dermal contraction was considered when both dermal edges were visible in a fixed field ×100 magnification utilizing H&E staining. Epidermal differentiation was assessed by Keratin 1 staining.
The organization of hypodermis was assessed by the presence (or absence) of hypodermis at both wound edges. Granulation tissue formation was assessed by the presence of fibroblasts and collagen fibers in the wound bed. The wound was considered positive for granulation tissue formation when a continuous layer of granulation tissue was present in the wound gap. In addition, we have defined 3 specific histological parameters characterizing severe inflammation of diabetic wounds: (i) abscess formation at the wounded area, (ii) excessive leukocytosis (>100 cells in a fixed field (×200)) and (iii) high white blood cells (WBC)/red blood cells (RBC) ratio within the blood vessels shown in a fixed field (×200). When at least 2 of these parameters are present at the wound gap, the wound is considered severely inflamed.

C57BL mice [3] = assay: Incision wounds treated 7 days, severe inflammation incidence (Example 10); assay type: in vivo; conditions: 1 μM daily for 7 days
Description: Wounds were performed on the back of C57BL mice by incision and were treated daily for 7 days with: (i) PBS, control; (ii) 1 μM of the PKCα inhibitor of SEQ ID NO: 6; (iii) 1 μM insulin (Humulin, Eli Lilly, USA); or (iv) a mixture of 1 μM PKCα inhibitor and 1 μM insulin.

[4] = individual wounds, 1 μM daily for 7 days, listed as Insulin only
[5] = 9-days post wounding, percent of wounds in group, insulin 0.1 units, HO/02 1 ug/ml
[6] = 9-days post wounding, percent of wounds in group, insulin 0.1 units, SEQ ID NO: 6 1 ug/ml

Question: Which results are given for “Myristoyl-Thru-Arg-Lys-Arg-Gln-Arg-Ala-Met-Arg-Arg-Arg-Val-His-Gln-Ile-Asn-Gly-OH (Myristoyl-TRKRQRAMRRRVHQING-OH; SMILES CCCCCCCCCCCCCC(=O)N[C@H](C(=O)N[C@@H](CCCNC(=N)N)C(=O)N[C@@H](CCCCN)C(=O)N[C@@H](CCCNC(=N)N)C(=O)N[C@@H](CCC(N)=O)C(=O)N[C@@H](CCCNC(=N)N)C(=O)N[C@@H](C)C(=O)N[C@@H](CCSC)C(=O)N[C@@H](CCCNC(=N)N)C(=O)N[C@@H](CCCNC(=N)N)C(=O)N[C@@H](CCCNC(=N)N)C(=O)N[C@H](C(=O)N[C@@H](Cc1c[nH]cn1)C(=O)N[C@@H](CCC(N)=O)C(=O)N[C@H](C(=O)N[C@@H](CC(N)=O)C(=O)NCC(=O)O)[C@@H](C)CC)C(C)C)[C@@H](C)O) [MPE-1]”?
Answer: The initial day (of illness signs) (EAE mice; 0.1 mg/kg): 11 days; EAE severity / score compared to control group (EAE mice; 0.1 mg/kg (0.1 μg/ml)): reduced EAE severity; Score on day 18 (EAE mice; 0.1 mg/kg): 2.857; Score on day 29 (EAE mice; 0.1 mg/kg): 1.929; Score on day 37 (EAE mice; 0.1 mg/kg): 1.429; EAE score on the initial day (EAE mice; 0.1 mg/kg): 0.429; The initial day (of illness signs) (EAE mice; 1 mg/kg): 10 days; Number of dead mice during 49 days (EAE mice; 1 mg/kg i.p. three times a week): 4; Score on day 18 (EAE mice; 1 mg/kg): 3.071; Score on day 29 (EAE mice; 1 mg/kg): 4.286; Score on day 37 (EAE mice; 1 mg/kg): 4.286; EAE score on the initial day (EAE mice; 1 mg/kg): 0.429; average group score at the end of the experiment (day 42) (EAE mice; concentration of 0.1 μg/ml, control group score 2.86): 2.00

Question: How did the “The initial day (of illness signs)” value (EAE mice; 0.2 mg/kg) turn out when CRAMP [reference compound] was run?
Answer: 10 days

Question: What about the “Number of dead mice during 49 days” value (EAE mice; 0.2 mg/kg i.p. three times a week) of the same substance?
Answer: 2

Question: What about the “Score on day 18” value (EAE mice; 0.2 mg/kg) of the same substance?
Answer: 3.214

Question: What about the “Score on day 29” value (EAE mice; 0.2 mg/kg) of the same substance?
Answer: 2.000

Question: And the “Score on day 37” value (EAE mice; 0.2 mg/kg)?
Answer: 2.571

Question: What about the “EAE score on the initial day” value (EAE mice; 0.2 mg/kg) of the same substance?
Answer: 0.571

Question: What about the “The initial day (of illness signs)” value (EAE mice; 2 mg/kg) of the same substance?
Answer: 11 days

Question: What about the “Number of dead mice during 49 days” value (EAE mice; 2 mg/kg i.p. three times a week) of the same substance?
Answer: 2

Question: And the “Score on day 18” value (EAE mice; 2 mg/kg)?
Answer: 2.643

Question: And the “Score on day 29” value (EAE mice; 2 mg/kg)?
Answer: 2.643

Question: What about the “Score on day 37” value (EAE mice; 2 mg/kg) of the same substance?
Answer: 2.143

Question: What about the “EAE score on the initial day” value (EAE mice; 2 mg/kg) of the same substance?
Answer: 0.143

Question: Which “cytokine secretion in keratinocytes” value (keratinocytes) does the source give for “H-Phe-Ala-Arg-Lys-Gly-Ala-Leu-Arg-Gln-OH (H-FARKGALRQ-OH) [AWOT-1]” here?
Answer: effective in decreasing cytokine secretion

Question: For “H-Phe-Ala-Arg-Lys-Gly-Ala-Leu-Arg-Gln-OH-acetate salt (H-FARKGALRQ-OH; also: acetate salt) [PDY-1]”, which “cytokine secretion from IL-17A activated keratinocytes” value (keratinocytes) is on record?
Answer: decrease cytokine secretion

Question: And the “cytokine secretion from LPS and TNFα activated keratinocytes” value (keratinocytes)?
Answer: decrease cytokine secretion

Question: “H-Thr-Leu-Asn-Pro-Gln-Trp-Glu-Ser-OH (H-TLNPQWES-OH) [AIP-1]” was tested. Which “cytokine secretion in keratinocytes” value (keratinocytes) did it give?
Answer: effective in decreasing cytokine secretion

Question: “Myristoyl-Phe-Ala-Arg-Lys-Gly-Ala-Leu-OH-trifluoracetate salt (Myristoyl-FARKGAL-OH; also: trifluoroacetate salt) [AIP-2]” was tested. Which “cytokine secretion in keratinocytes” value (keratinocytes) did it give?
Answer: effective in decreasing cytokine secretion

Question: What does the source list for “Insulin: insulin (Humulin, Eli Lilly, USA)”?
Answer: adverse side effects at the wound (C57BL mice [1]; 1 μM daily for 7 days): increased inflammation, hyperplasia of epidermal cells, delayed differentiation of the spinous layer of epidermal cells and increased scarring; incidence of abnormal angiogenesis in the wound area (C57BL mice [1]; 1 μM daily for 7 days, PBS control 25%): 60%; Proliferative capacity of the epidermis (layers of basal cells, PCNA), average (C57BL mice [1]; group average, N = 5, 1 μM daily for 7 days): average 6.4; Angiogenesis (C57BL mice [1]; [4]): high abnormal; also recorded: normal; Proliferative capacity of the epidermis (layers of basal cells, PCNA) (C57BL mice [1]; [4]): 8 (2×) and 6 and 5 (2×); Dermal closure (H&E) [2, 5]: 0%; Epidermal closure (K14) [2, 5]: 17%; Epidermal differentiation (Kl) [2, 5]: 0%; Granulation tissue [2, 6]: 40%; Hypodermis [2, 6]: 10%; Severe inflammation [2, 6]: 100%; overall healing effect in diabetic wounds ([2]; 9 days post-wounding): only partial healing effects; anti-inflammatory effect on wounds (C57BL mice [3]): no anti-inflammatory effect; Incidence of severe inflammation in wound (%) (C57BL mice [3]; PBS control 60): 56%

Question: For “Palmitoyl-Phe-Ala-Arg-Lys-Gly-Ala-Leu-Arg-Gln-OH-acetate salt (Palmitoyl-FARKGALRQ-OH; also: acetate salt) [PPDY-1]”, which “cytokine secretion in keratinocytes” value (keratinocytes) is on record?
Answer: effective in decreasing cytokine secretion

Question: What does the source list for “Myristoyl-Phe-Ala-Arg-Lys-Gly-Ala-Leu-OH (Myristoyl-FARKGAL-OH; SMILES CCCCCCCCCCCCCC(=O)N[C@@H](Cc1ccccc1)C(=O)N[C@@H](C)C(=O)N[C@@H](CCCNC(=N)N)C(=O)N[C@@H](CCCCN)C(=O)NCC(=O)N[C@@H](C)C(=O)N[C@@H](CC(C)C)C(=O)O) [MPDY-1 sh]”?
Answer: cytokine secretion from IL-17A activated keratinocytes (keratinocytes): decrease cytokine secretion; cytokine secretion from LPS and TNFα activated keratinocytes (keratinocytes): decrease cytokine secretion
